Assay results: ChEMBL document CHEMBL5252551, “A hit deconstruction approach for the discovery of fetal hemoglobin inducers” (Bioorg Med Chem Lett, 2018)
Values after ≈ are worked out from the molar mass of the structure shown. Active and inactive are the calls of the source. No cut-off for these calls is given here.

What was measured:
[1] = Solubility of the compound in FaSSIF; type: ADME
[2] = Induction of HbF production in human erythroid progenitor cells measured after 3 days by ELISA assay; type: functional, cell-based; conditions: Erythroid progenitor cell, 72 h
[3] = Volume of distribution at steady state in Sprague-Dawley rat at 5 mg/kg,po or 1 mg/kg,iv; type: ADME, organism-based; conditions: in vivo
[4] = Oral bioavailability in Sprague-Dawley rat at 5 mg/kg; type: ADME, organism-based; conditions: in vivo
[5] = Cmax in Sprague-Dawley rat at 5 mg/kg,po; type: ADME, organism-based; parameters: dose 5 mg/kg, route po; conditions: in vivo
[6] = Cmax in Sprague-Dawley rat at 1 mg/kg,iv; type: ADME, organism-based; parameters: dose 1 mg/kg, route iv; conditions: in vivo
[7] = Half life in Sprague-Dawley rat at 1 mg/kg, iv; type: ADME, organism-based; conditions: in vivo
[8] = Dose normalized AUC in Sprague-Dawley rat at 5 mg/kg,po; type: ADME, organism-based; conditions: in vivo
[9] = Half life in Sprague-Dawley rat at 5 mg/kg,po; type: ADME, organism-based; conditions: in vivo
[10] = Dose normalized AUC in Sprague-Dawley rat at 1 mg/kg, iv; type: ADME, organism-based; conditions: in vivo
[11] = Dose normalized AUC in Sprague-Dawley rat at 10 mg/kg,po; type: ADME, organism-based; conditions: in vivo
[12] = Half life in Sprague-Dawley rat at 10 mg/kg,po; type: ADME, organism-based; conditions: in vivo
[13] = Cmax in Sprague-Dawley rat at 10 mg/kg,po; type: ADME, organism-based; parameters: dose 10 mg/kg, route po; conditions: in vivo
[14] = Oral bioavailability in Sprague-Dawley rat at 10 mg/kg; type: ADME, organism-based; conditions: in vivo
[15] = Solubility of the compound in simulated intestinal fluid measured after 4 hrs; type: ADME
[16] = Genotoxicity in Salmonella typhimurium in presence of S9 fraction by Ames test; type: toxicity, subcellular; conditions: salmonella enterica subsp. enterica serovar typhimurium
[17] = Genotoxicity in Salmonella typhimurium in absence of S9 fraction by Ames test; type: toxicity; conditions: salmonella enterica subsp. enterica serovar typhimurium
[18] = Dose normalized AUC in Sprague-Dawley rat at 100 mg/kg,po; type: ADME, organism-based; conditions: in vivo
[19] = Half life in Sprague-Dawley rat at 100 mg/kg,po; type: ADME, organism-based; conditions: in vivo
[20] = Cmax in Sprague-Dawley rat at 100 mg/kg,po; type: ADME, organism-based; parameters: dose 100 mg/kg, route po; conditions: in vivo
[21] = Oral bioavailability in Sprague-Dawley rat at 100 mg/kg; type: ADME, organism-based; conditions: in vivo
[22] = Dose normalized AUC in Sprague-Dawley rat at 28 mg/kg,po; type: ADME, organism-based; conditions: in vivo
[23] = Half life in Sprague-Dawley rat at 28 mg/kg,po; type: ADME, organism-based; conditions: in vivo
[24] = Oral bioavailability in Sprague-Dawley rat at 28 mg/kg; type: ADME, organism-based; conditions: in vivo
[25] = Cmax in Sprague-Dawley rat at 28 mg/kg,po; type: ADME, organism-based; parameters: dose 28 mg/kg, route po; conditions: in vivo
[26] = (§1) Induction of HbF production in human erythroid progenitor cells at upto 33 uM measured after 3 days by ELISA assay; type: functional, cell-based; conditions: Erythroid progenitor cell, 72 h
[27] = system: Erythroid progenitor cell; assay: as §1; type: functional, cell-based; conditions: time 3.0 day

O=C(O)CCc1ccc2c(c1)B(O)OC2
solubility [1]: > 1000 µg/mL | EC50 ([2]; read-out: pEC50 (converted)): 1120 nM

O=C(Nc1ccc2c(c1)B(O)OC2)c1cccn(Cc2ccccc2)c1=O
Vdss [3]: 1.7 L/kg | bioavailability [4]: 27% | Cmax [5]: 1420 ng/mL | Cmax [6]: 792 ng/mL | half-life [7]: 6.4 h | AUC/dose [8]: 1120 kg·ng·h/mL/mg | half-life [9]: 4.5 h | AUC/dose [10]: 4210 kg·ng·h/mL/mg

O=C(O)c1ccn(-c2ccc3c(c2)B(O)OC3)c1
solubility [1]: 510 µg/mL (≈ 2.1 mM) | EC50 ([2]; read-out: pEC50 (converted)): 316 nM

CC(C)(c1ccc2c(c1)B(O)OC2)c1nnn[nH]1
bioavailability [4]: 68% | AUC/dose [11]: 1049 kg·ng·h/mL/mg | Cmax [5]: 1180 ng/mL | half-life [12]: 1.53 h | solubility [1]: 930 µg/mL (≈ 3.81 mM) | Cmax [13]: 3880 ng/mL | EC50 ([2]; read-out: pEC50 (converted)): 26.3 nM | AUC/dose [8]: 612 kg·ng·h/mL/mg | bioavailability [14]: > 100% | half-life [9]: 1.05 h

O=C(NS(=O)(=O)c1ccc2c(c1)B(O)OC2)c1ccccc1
solubility [1]: 980 µg/mL (≈ 3.09 mM) | EC50 ([2]; read-out: pEC50 (converted)): 110 nM

O=C(Nc1cccn(Cc2ccccc2)c1=O)c1cc(F)c2c(c1)B(O)OC2
solubility [1]: 8 µg/mL (≈ 0.0212 mM) | EC50 ([2]; read-out: pEC50 (converted)): 2140 nM

O=C(Nc1cccn(Cc2ccccc2)c1=O)c1ccc2c(c1)B(O)OC2
solubility at 4 h [15]: 3 µg/mL (≈ 0.00833 mM) | solubility [1]: 3 µg/mL (≈ 0.00833 mM) | EC50 ([2]; read-out: pEC50 (converted)): 1020 nM | Activity [16]: Non-Toxic | Activity [17]: Non-Toxic

O=C(Cc1ccc2c(c1)B(O)OC2)NS(=O)(=O)C1CCCC1
solubility [1]: 880 µg/mL (≈ 2.72 mM) | EC50 ([2]; read-out: pEC50 (converted)): 15.1 nM

C[C@H](C(=O)O)c1ccc2c(c1)B(O)OC2
bioavailability [4]: 88% | AUC/dose [18]: 683 kg·ng·h/mL/mg | half-life [19]: 4.53 h | Cmax [5]: 1730 ng/mL | solubility [1]: 950 µg/mL (≈ 4.61 mM) | EC50 ([2]; read-out: pEC50 (converted)): 871 nM | AUC/dose [8]: 451 kg·ng·h/mL/mg | half-life [9]: 1.14 h | Cmax [20]: 47200 ng/mL | bioavailability [21]: > 100%

O=C(Cc1ccc2c(c1)B(O)OC2)NS(=O)(=O)c1ccccc1
bioavailability [4]: 28% | Cmax [5]: 1290 ng/mL | AUC/dose [22]: 2120 kg·ng·h/mL/mg | half-life [23]: 3.88 h | solubility [1]: 900 µg/mL (≈ 2.72 mM) | EC50 ([2]; read-out: pEC50 (converted)): 64.6 nM | AUC/dose [8]: 560 kg·ng·h/mL/mg | half-life [9]: 7.29 h | bioavailability [24]: > 100% | Cmax [25]: 53000 ng/mL

O=C(Nc1cccn(Cc2ccccc2)c1=O)c1cc2c(cc1F)COB2O
EC50 ([2]; read-out: pEC50 (converted)): > 31600 nM

OB1OCc2ccc(OCc3nnn[nH]3)cc21
bioavailability [4]: 13% | AUC/dose [18]: 184 kg·ng·h/mL/mg | half-life [19]: 3.54 h | Cmax [5]: 71 ng/mL | solubility [1]: > 1000 µg/mL | EC50 ([2]; read-out: pEC50 (converted)): 275 nM | AUC/dose [8]: 38 kg·ng·h/mL/mg | half-life [9]: 1.3 h | Cmax [20]: 4900 ng/mL | bioavailability [21]: 62%

O=C(Nc1cccn(Cc2ccccc2)c1=O)c1ccc2c(c1F)B(O)OC2
solubility [1]: 4 µg/mL (≈ 0.0106 mM) | EC50 ([2]; read-out: pEC50 (converted)): 91.2 nM

C[C@@H](C(=O)O)c1ccc2c(c1)B(O)OC2
bioavailability [4]: 83% | AUC/dose [11]: 283 kg·ng·h/mL/mg | Cmax [5]: 1860 ng/mL | half-life [12]: 3.03 h | solubility [1]: > 1000 µg/mL | Cmax [13]: 2710 ng/mL | EC50 ([2]; read-out: EC50): 40 nM | EC50 ([2]; read-out: pEC50 (converted)): 39.8 nM | AUC/dose [8]: 429 kg·ng·h/mL/mg | bioavailability [14]: 55% | half-life [9]: 16.6 h

O=C(O)CNC(=O)c1ccc2c(c1)B(O)OC2
EC50 ([2]; read-out: pEC50 (converted)): > 31600 nM

COc1cc2c(cc1C(=O)NS(=O)(=O)c1ccccc1)B(O)OC2
EC50 [26]: > 31600 nM

O=C(O)Cc1ccc2c(c1)B(O)OC2
solubility [1]: > 1000 µg/mL | EC50 ([2]; read-out: pEC50 (converted)): 1070 nM

OB1OCc2ccc(Cc3nnn[nH]3)cc21
bioavailability [4]: 24% | Cmax [5]: 283 ng/mL | solubility [1]: > 1000 µg/mL | EC50 ([2]; read-out: pEC50 (converted)): 9.12 nM | AUC/dose [8]: 103 kg·ng·h/mL/mg | half-life [9]: 3.67 h

O=C(O)c1cccn1-c1ccc2c(c1)B(O)OC2
solubility [1]: > 1000 µg/mL | EC50 ([2]; read-out: pEC50 (converted)): 11500 nM

O=C(Nc1cccc(B(O)O)c1)c1cccn(Cc2ccccc2)c1=O
Activity [27]: inactive | EC50 ([2]; read-out: pEC50 (converted)): > 31600 nM

CC(C(=O)O)c1ccc2c(c1)B(O)OC2 (racemic)
solubility [1]: > 1000 µg/mL | EC50 ([2]; read-out: pEC50 (converted)): 47.9 nM

Cc1ccc(NC(=O)c2cccn(Cc3ccccc3)c2=O)cc1B(O)O
Activity [27]: inactive | EC50 ([2]; read-out: pEC50 (converted)): > 31600 nM

OB1OCc2ccc(Oc3nnn[nH]3)c(F)c21
solubility [1]: > 1000 µg/mL | EC50 ([2]; read-out: pEC50 (converted)): 724 nM

O=C(Cc1ccc2c(c1)B(O)OC2)NS(=O)(=O)C1CC1
solubility [1]: 700 µg/mL (≈ 2.37 mM) | EC50 ([2]; read-out: pEC50 (converted)): 18.2 nM

NC(=O)CNC(=O)c1ccc2c(c1)B(O)OC2
EC50 ([2]; read-out: pEC50 (converted)): > 31600 nM

O=C(CCc1ccc2c(c1)B(O)OC2)NS(=O)(=O)c1ccccc1
solubility [1]: > 1000 µg/mL | EC50 ([2]; read-out: pEC50 (converted)): 832 nM

CCC(C(=O)O)c1ccc2c(c1)B(O)OC2 (racemic)
solubility [1]: 850 µg/mL (≈ 3.86 mM) | EC50 ([2]; read-out: pEC50 (converted)): 50.1 nM

CC(C)(C)OC(=O)NCc1ccc(S(=O)(=O)NC(=O)CCc2ccc3c(c2)B(O)OC3)cc1
EC50 [26]: 912 nM

O=C(CNC(=O)c1ccc2c(c1)B(O)OC2)NCc1ccccc1
EC50 ([2]; read-out: pEC50 (converted)): > 31600 nM

CC(C)C(C(=O)O)c1ccc2c(c1)B(O)OC2 (racemic)
solubility [1]: > 1000 µg/mL | EC50 ([2]; read-out: pEC50 (converted)): 646 nM

NC(=O)c1ccc2c(c1)B(O)OC2
EC50 ([2]; read-out: pEC50 (converted)): > 31600 nM

NCc1ccc(S(=O)(=O)NC(=O)CCc2ccc3c(c2)B(O)OC3)cc1
EC50 [26]: 6030 nM

CC(C)(C(=O)O)c1ccc2c(c1)B(O)OC2
solubility [1]: > 1000 µg/mL | EC50 ([2]; read-out: pEC50 (converted)): 115 nM

O=C(O)c1ccc2c(c1)B(O)OC2
solubility [1]: 950 µg/mL (≈ 5.34 mM) | EC50 ([2]; read-out: pEC50 (converted)): 9330 nM

CC(C(=O)NS(=O)(=O)C1CC1)c1ccc2c(c1)B(O)OC2 (racemic)
solubility [1]: > 1000 µg/mL | EC50 ([2]; read-out: pEC50 (converted)): 26.9 nM

OB1OCc2ccc(Oc3nnn[nH]3)cc21
solubility [1]: > 1000 µg/mL | EC50 ([2]; read-out: pEC50 (converted)): 129 nM
